Source: PubChem BioAssay AID179 (DTP/NCI, 2004)
pEC50, pIC50: −log10 of the molar value. Where “and” joins values, the source holds several entries; their conditions need not be identical. Equal values may be shown once. Calls of active or inactive are those of the source.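 How the source made its calls: active means compounds giving half or more protection of infected cells from virus-caused growth loss, again on retest; inactive means the rest.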 Where a SMILES comes first, the peptide text is derived from it. [ ]: non-standard residue; d: D form. The star is where a group is joined. NMeF = CN[CH](Cc1ccccc1)C(=O)O; NMeV = CN[CH](C(=O)O)C(C)C; Boc = CC(C)(C)OC(=O)*; OBn = c1ccc(CO*)cc1

Test system: CEM cells HIV-1 protection, formazan growth assay
Assay: NCI AIDS Antiviral Assay
Settings: for pIC50: measured here: growth of uninfected CEM cells
Procedure, shortened: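 Human CEM cells, uninfected and HIV-1-infected, received five drug concentrations, and growth was read by soluble formazan assay. Compounds giving at least 50% protection were retested; reproducible 100% protection defined confirmed active.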

| SMILES | outcome | pEC50 | pIC50 |
| --- | --- | --- | --- |
| COc1ccc(-c2nc3ccc([N+](=O)[O-])cc3c(=O)[nH]2)cc1 | inactive |  |  |
| CCOC(F)(F)/C=C/c1ccccc1 | inactive |  |  |
| O=c1oc2c3ccc4ccccc4c3n(CCCN3CCCCC3)c2c2ccccc12 |  | < 4.79 | 5.11 |
| C(=C\c1ccccc1)/COc1ccccc1C(N1CCOCC1)n1nc2ccccc2n1 (stereo not given) |  | < 3.70 | 5.17 |
| C[C@]12CCc3nonc3C1CC[C@@H]1C2CC[C@]2(C)C(=O)CCC12 (stereo not given in full) |  | < 4.08 | < 4.08 |
| CC(=O)NC(CS)C(=O)NC(CO)C(=O)NC(CO)C(=O)NC(Cc1c[nH]c2ccccc12)C(=O)N1CCCC1C(=O)NC(CO)C(=O)NC(Cc1c[nH]c2ccccc12)C(=O)NC(Cc1c[nH]cn1)C(=O)NC(CO)C(=O)NC(Cc1c[nH]c2ccccc12)C(=O)NCC(=O)NCC(=O)NC(C)C(=O)NC(CCC(N)=O)C(=O)NC(CCCCN)C(=O)NC(C)C(=O)NC(CCCNC(=N)N)C(=O)NC(CCCCN)C(N)=O (stereo not given) (Ac-CSSWPSWHSWGGAQKARK-NH2; configuration not given here) |  | < 4.70 | 4.76 |
| COC(=O)C(NC(=O)C12CCC(C)(C(=O)O1)C2(C)C)c1cc(C(C)(C)C)c(O)c(C(C)(C)C)c1 (stereo not given) |  | < 4.70 | < 4.70 |
| Fc1ccc(Nc2nc(Cl)c3[nH]cnc3n2)cc1Cl |  | < 3.70 | < 3.70 |
| COc1cccc(/C=N/[N-]C(=O)c2ccncc2)c1[O-].[Ni+2].[OH3+] |  | < 3.98 | < 3.98 |
| Cc1ccc2c(c1)N=C(Nc1ccccc1)N=S2(C)=O (stereo not given) | inactive |  |  |
| CSC(=S)Nc1cccc(C)n1 |  | < 3.70 | 3.99 |
| O=c1c2ccccc2nc(-c2cccc(Cl)c2)n1NC1OC(CO)C(O)C(O)C1O (stereo not given) | inactive |  |  |
| O=c1c(-c2ccc(O)cc2)coc2cc(O)cc(O)c12 |  | < 3.70 | 5.25 |
| CCOC(=O)C(C(=O)OCC)=C1N[C@H](C(=O)OCC)CS1 |  | < 3.53 | < 3.53 |
| Nc1nc2c(c(=O)[nH]1)Cc1nc(N)[nH]c(=O)c1C2 |  | < 4.61 | < 4.61 |
| Cc1cc(NS(=O)(=O)c2ccc(N=[N+]([O-])c3ccc(S(=O)(=O)Nc4cc(C)on4)cc3)cc2)no1 |  | < 3.70 | < 3.70 |
| CCOC(=O)/C=C1/SC(N2CCCCC2)C(=O)N1CC (stereo not given) |  | < 3.78 | < 3.78 |
| Cc1ccc2c(c1)CN(C(=O)CCC(=O)OCc1ccccc1)c1ccc(C)cc1CN2C(=O)CCC(=O)OCc1ccccc1 | inactive |  |  |
| CC1CC2CC(=O)CC3(C1)C2CCCN3CCCO (stereo not given) | inactive |  |  |
| O=S1ON=C(C2CCC(C3=NOS(=O)O3)C2)O1 (stereo not given) |  | < 3.70 | < 3.70 |
| Cc1ccc(C2(O)c3ccccc3N=NN2C)cc1 (stereo not given) |  | < 3.57 | 3.98 |
| COc1ccc(CC(=O)C2C(=O)N(C)c3ccccc32)cc1OC (stereo not given) |  | < 3.70 | 4.35 |
| CSc1ncc2c(C#N)c3[nH]c4ccccc4n3c(=O)c2n1 |  | < 3.70 | 5.19 |

| SMILES | outcome | pEC50 | pIC50 |
| --- | --- | --- | --- |
| O=C1/C(=C/c2ccc(O)c(O)c2)CCc2ccccc21 |  | < 3.79 | 5.62 |
| CCOP(=O)(OCC)O/N=C/c1cccc(C(F)(F)F)c1 |  | < 3.69 | < 3.69 |
| COc1ccc(C2COc3c(ccc(OC)c3OC)C2=O)cc1OC (stereo not given) | inactive |  |  |
| CCCCSC(=CC(=O)c1cccc(C(=O)C=C(SCCCC)SCCCC)n1)SCCCC |  | < 5.43 | < 5.43 |
| N#Cc1c(N2CCOCC2)ncn(-c2ccccc2)c1=O |  | < 3.70 | < 3.70 |
| CCOC(=O)C1=C(O)c2ccccc2S(=O)(=O)N1C (tested in a mixture with another compound) |  | < 3.91 | 3.96 |
| COc1ccccc1-c1cc(=O)c2ccc(OC)c(OC)c2o1 |  | < 3.70 | 4.48 |
| C1=C[C@@H]2c3ccc4cnccc4c3NC[C@@H]2C1 |  | < 3.23 | 4.44 |
| O=Cc1cc2c(cc1-c1c(C=O)ccc3c1OCO3)OCO2 |  | < 4.20 | 4.48 |
| CCOC(=O)n1c2ccccc2c2c(O)c(OC)c3c(c21)C(=O)NC3=O |  | < 3.70 | 4.52 |
| Nn1c(SCc2nc3ccccc3[nH]2)nnc1-c1ccccc1 |  | < 3.70 | < 3.70 |
| O=C(O)Cn1c(=O)[nH]c(=O)c2c1ncn2Cc1ccccc1 |  | < 3.08 | < 3.08 |
| CC(C)[C@](O)(C(=O)OCC1=CC[N+]2([O-])CC[C@@H](O)[C@@H]12)[C@H](C)O (stereo not given in full) |  | < 3.40 | < 3.40 |
| CCCCCCCCSC(=O)NCCCC | inactive |  |  |
| Cc1ccc2nc(C=Nc3ccc(Cl)cc3)cc(C)c2c1 | inactive |  |  |
| CCOC(=O)C(CC)c1cc2n(c(=O)c1C#N)CCC21OCCO1 (stereo not given) |  | < 3.70 | < 3.70 |
| O=C(OC1C#CCSCC#C/C=C\1)c1ccc2c(c1)C(=O)c1ccccc1C2=O (stereo not given) |  | < 3.70 | 4.16 |
| O=C(N/N=C/c1c(-c2ccccc2)no[n+]1[O-])N1CCOCC1 |  | < 4.00 | < 4.00 |
| CN(C)C(=N)OCc1ccccc1 |  | < 3.70 | < 3.70 |
| COc1cccc2c1OC(c1ccc(Cl)cc1)C([N+](=O)[O-])=C2 (stereo not given) |  | < 3.70 | 5.84 |
| CCCCCCCCCCC/C=C(/C(=O)CCCO[Si](C)(C)C(C)(C)C)C(=O)OC |  | < 3.70 | < 3.70 |
| CC(C)C(NC(=O)OC(C)(C)C)C(=O)N(C)C(Cc1ccccc1)C(=O)N(C)C(C(=O)OCc1ccccc1)C(C)C (stereo not drawn) (Boc-Val-[NMeF]-[NMeV]-OBn; configuration not given here) |  | < 3.70 | 4.09 and 3.96 |
| O=C(N/C(=C\c1ccc(Br)cc1)c1nc2ccccc2[nH]1)c1ccccc1 |  | < 4.21 | 4.47 |

| SMILES | outcome | pEC50 | pIC50 |
| --- | --- | --- | --- |
| [CH3][Hg]/[N]=C(/N)NC#N | inactive |  |  |
| Clc1ccc(NC(Nc2ccc(Cl)cc2)C(Cl)(Cl)Cl)cc1 | inactive |  |  |
| Cc1nc2ccc(NC3OCC(O)C(O)C3O)cc2c(=O)n1-c1ccccc1 (stereo not given) |  | < 3.70 | 3.94 |
| [N-]=[N+]=Nc1ccc2c(c1)Sc1ccccc1N2CCCCN1CCN(C(=O)CCNC(=O)Cc2ccc(C(=O)c3ccccc3)cc2)CC1 |  | < 3.70 | 5.41 |
| OCCCNc1ccnc2cc(Cl)ccc12 |  | < 3.04 | 4.09 |
| O=C1C/C(=C\O)C(=O)c2ccccc2N1 |  | 6.73 | < 3.70 |
| COC(=O)C1(C(=O)OC)N=C(C)OC1c1ccoc1 (stereo not given) |  | < 3.70 | < 3.70 |
| C=C(Cl)CSC(=S)N1CCOCC1 | inactive |  |  |
| O=C(Nc1ccc(Cl)cc1)NS(=O)(=O)c1ccc2c(c1)CCC2 |  | < 3.15 | 4.32 |
| Cc1cc(S(=O)(=O)/N=C(/NN)Nc2ccc(Cl)cc2)c(S)cc1Cl |  | < 3.70 | 5.00 |
| CCOC(=O)C1(C(=O)OCC)NC(=O)CC1CC (stereo not given) | inactive |  |  |
| CN(NC1=NCCO1)c1ccc2ccccc2c1 |  | < 3.70 | 4.54 |
| Cn1c(N)c(N=Nc2ccc(S(=O)(=O)Nc3ccccn3)cc2)c(=O)n(C)c1=O | inactive |  |  |
| C[C@]12CC[C@H]3[C@@H](CCC4=CC(=O)[C@H](Br)C[C@@]43C)[C@@H]1CC[C@@H]2C(=O)CBr |  | < 5.70 | 6.50 |
| CC(=O)c1c(-c2ccc(O)cc2)oc2cc(O)ccc12 |  | < 3.46 | 4.20 |
| CC1N=C(c2ccccc2)c2cc(Cl)ccc2NC1=O (stereo not given) |  | < 4.74 | < 4.74 |
| COc1ccc(-c2cc(=O)c3ccc(O)cc3o2)cc1OC |  | < 4.00 | 4.62 |
| O=C1CCC2(c3ccc(F)cc3)Nc3ncccc3N12 (stereo not given) |  | < 3.88 | < 3.88 |
| O=c1oc2ccccc2nc1/C=C(\O)c1ccc(Cl)cc1 |  | < 3.70 | 4.19 |
| O=C(NNC(=O)c1ccccc1O)c1ccco1 |  | < 3.70 | 4.49 |
| CCOC(=O)[C@H]1CSC[C@@H](C(=O)OC)N1 |  | < 3.25 | < 3.25 |
| CCSc1nnc(Sc2c3ccccc3nc3ccccc23)s1 |  | < 3.70 | 5.55 |
| [O-][n+]1onc2c1-c1nonc1CC2 |  | < 3.70 | 4.57 |

| SMILES | outcome | pEC50 | pIC50 |
| --- | --- | --- | --- |
| COc1ccc(Nc2cc(=O)[nH]c(=O)[nH]2)cc1 |  | < 3.70 | < 3.70 |
| CCOC(=O)[C@@]12C[C@](/C=C/OC)(O[Si](C)(C)C)[C@@]13c1cc(OC)c(OC)cc1CCN3C(=O)C2=O |  | < 3.70 | < 3.70 |
| CCC1C(c2ccccc2O)c2cc3c(cc2OC1N1CCOCC1)OCO3 (stereo not given) |  | < 3.70 | 4.65 |
| CSc1nc(Nc2ccccc2Cl)c2c(N)nn(C)c2n1 |  | < 3.70 | < 3.70 |
| O=C(NNC(=S)Nc1ccc(Cl)cc1)c1cc(-c2ccccc2)nc2ccccc12 |  | < 3.70 | 5.07 |
| CCCCCCCCCCCCCCCCNC(=O)/C(=C\c1ccc(Cl)c(Cl)c1)NC(=O)c1ccccc1 |  | < 4.00 | 4.70 |
| O=[N+]([O-])c1ccc(CSCc2ccc([N+](=O)[O-])cc2)cc1 |  | < 3.70 | < 3.70 |
| CCN(CC)c1ccc2c(c1)Oc1ccc(N(C(C)=O)c3ccccc3)cc1C21OC(=O)c2ccccc21 (stereo not given) |  | < 3.70 | 5.22 |
| O=C(O)/C=N\Nc1nc2ccccc2[nH]1 |  | < 3.70 | < 3.70 |
| C1=CC(=NN=P(c2ccccc2)(c2ccccc2)c2ccccc2)C=C1 | inactive |  |  |
| COc1ccc(CN=C(N)N)c2ccccc12 |  | < 3.70 | 5.29 |
| Nn1c(N=Nc2c(O)[nH]c3ccccc23)n[nH]c1=S |  | < 4.47 | < 4.47 |
| O=C1C=CC2OC(c3ccccc3)C(O)C2O1 (stereo not given) |  | < 2.97 | 4.94 |
| Oc1ccc([I+]c2ccccc2)cc1O |  | < 3.97 | 4.52 |
| OCC1OC(n2cnc(C3=NCCCN3)n2)C(O)C1O (stereo not given) | inactive |  |  |
| c1ccc2c(c1)SC1=C(SC(=C3SC4=C(S3)Sc3ccccc3S4)S1)S2 |  | < 4.00 | < 4.00 |
| O=C(NCCc1c[nH]c2ccccc12)C1CCCCC1 |  | < 3.70 | 4.17 |
| C[n+]1c2ccccc2c(NC(CCC(N)=O)C(=O)O)c2ccccc21 (stereo not given) | inactive |  |  |
| COc1ccc2c(c1OC)C(=O)c1ccoc1C2=O | inactive |  |  |
| COC(=O)NN=C1C(C)(C)C(=O)C1(C)C |  | < 4.07 | < 4.07 |
